Test: Comparative bulk density determination
Type: physicochemical
Details: for Bulk density: powder sample

Structure (SMILES) | Tapped density (1250 taps) | Bulk density | Tapped density (1250 taps) (listed as ‘Form D’ Vlasartan) | Bulk density (listed as ‘Form D’ Vlasartan)
CCCCC(=O)N(Cc1ccc(-c2ccccc2-c2nnn[nH]2)cc1)[C@H](C(=O)O)C(C)C [Amorphous valsartan, (S)-N-(1-Carboxy-2-methyl-prop-1-yl)-N-pentanoyl-N-[2′-(1H-tetrazol-5-yl)bi-phenyl-4-ylmethyl]-amine] | 0.504 gm/ml | 0.37 gm/ml | – | –
CCCCC(=O)N(Cc1ccc(-c2ccccc2-c2nnn[nH]2)cc1)[C@H](C(=O)O)C(C)C [Form D, (S)-N-(1-Carboxy-2-methyl-prop-1-yl)-N-pentanoyl-N-[2′-(1H-tetrazol-5-yl)bi-phenyl-4-ylmethyl]-amine] | – | – | 0.6139 gm/ml | 0.4561 gm/ml

— patent publication US20080261959A1, “Novel crystalline forms of (S)-N-(1-Carboxy-2-methyl-prop-1-y)-N-pentanoyl-N[2'-(1H-tetrazol-5-yl)bi-phenyl-4-ylmethyl]-amine” (priority 2005, published 2008)
